Reference: patent publication US20260242360A1, “Novel Compound, and Pharmaceutical Composition for Prevention or Treatment of Cancer or Tumors Comprising Same” (Daewoong Pharmaceutical Co., Ltd., priority 2023, published 2026)

Legend:
Format in all cases: cell-based
NCI-H226 cells = experiment: Cell growth inhibition test (CellTiter-Glo), NCI-H226; conditions: Homo sapiens, NCI-H226 cell line
Description: (§1) The cell growth for the compounds prepared in Examples was measured by CellTiter-Glo® Luminescednt Cell Viability (Promega, Catalog #G7571) method using NCI-H226 (addexbio), NCI-H28 (Korea Cell Line Bank) cell lines. This evaluation method is a method in which when luciferase enzyme is activated by ATP flowing out from living cells, it reacts with a luciferin substrate, and the enzyme activity at this time is measured to confirm cell viability.
(§2) Specifically, NCI-H226, and NCI-H28 cells were prepared in 100 μL of cell culture medium (RPMI medium, 10% FBS, 1% P/S, 4.5 g/L D-Glucose, 2.383 g/L HEPES Buffer, L-Glutamine, 1.5 g/L Sodium Bicarbonate, 110 mg/L Sodium pyruvate) in a white clear bottom 96-well microplate. The prepared plate was incubated in a 5% CO2 incubator at 37° C. for 24 hours, and then the previously prepared compounds of Examples were finally treated at concentrations of 0.0005, 0.005, 0.05, 0.5 and 5 μM, which was repeated three times for all treatment solutions.
(§3) The plates treated with the compounds of Examples were incubated in a 5% CO2 incubator at 37° C. 100 μL/well of the substrate aqueous solution containing luciferin was added to a white clear-bottom 96 well microplate, thereby initiating an enzyme reaction. The reaction was performed at room temperature in the dark for 10 minutes, and the luminescence was measured using a Flexstation3 multi-mode microplate reader. In accordance with the instructions for the CellTiter-Glo™ Luminescednt Cell Viability, the luciferase enzyme activity, which represents the amount of ATP, was measured by a chemiluminescence method, and the inhibitory activity of the compounds according to the present disclosure was calculated. The results of each compound were analyzed using Microsoft Excel, and the IC50 values were calculated using GraphPad Prism software.

NCI-H28 cells = experiment: Cell growth inhibition test (CellTiter-Glo), NCI-H28; conditions: Homo sapiens, NCI-H28 cell line
Description: as §1, §2, §3

[1] = test system: transcription factor TEAD; experiment: Activity inhibition test of transcription factor TEAD (ONE-Glo luciferase assay, Hippo Pathway TEAD reporter-MCF7 cell line); conditions: Homo sapiens; TEAD Reporter-MCF7 cells, 24 hours treatment, luciferase luminescence
Description: The transcription factor TEAD activity of the compounds prepared in Examples was measured by the ONE-Glo™ Luciferase assay (Promega, Catalog #E6110) method using the Hippo Pathway TEAD reporter-MCF7 recombinant cell line (BPS Bioscience, Catalog #60618).
Specifically, the TEAD Reporter-MCF7 cell line contains the firefly luciferase gene whose expression is regulated under the control of TEAD response elements in the MCF7, which is a human breast cancer cell line. In the cell line, a non-phosphorylated YAP/TAZ exists in the nucleus in a non-stressed condition, which continuously induces expression of the luciferase reporter.
TEAD Reporter-MCF7 cells were prepared in 100 μL of cell culture medium (MEM medium, 10% FBS, 1% P/S, 400 μg/mL Geneticin, 1% […], 1 mM NA pyruvate, 10 μg/mL Insulin) in a white clear bottom 96-well microplate. The prepared plate was incubated in a 5% CO2 incubator at 37° C. for 24 hours, and then the previously prepared compounds of Examples were finally treated at concentrations of 0.0005, 0.005, 0.05, 0.5 and 5 μM, which were repeated three times for all treatment solutions. The plates treated with the compounds of Examples were incubated in a 5% CO2 incubator at 37° C. for 24 hours. 100 μL/well of the substrate aqueous solution containing luciferin was added to a white clear-bottom 96 well microplate, thereby initiating an enzyme reaction. The reaction was performed at room temperature for 5 minutes, and the luminescence (integration time 1000 ms) was measured using a Flexstation3 multi-mode microplate reader. In accordance with the instructions for the ONE-Glo™ Luciferase Assay, the luciferase enzyme activity, which represents the activity of the transcription factor TEAD, was measured by a chemiluminescence method, and the inhibitory activity of the compound according to the present disclosure was calculated. The results of each compound were analyzed using Microsoft Excel, and the IC50 values were calculated by GraphPad Prism software.

IC50 (NCI-H226 cells) | IC50 (NCI-H28 cells) | IC50 [1] | Compound
79 nM | 1360 nM | 90 nM | C=CC(=O)Nc1cc(-c2cn(C)cn2)c2[nH]c(-c3cc(F)c(Cl)c(F)c3)cc2c1 [Example 46, N-(2-(4-chloro-3,5-difluorophenyl)-7-(1-methyl-1H-imidazol-4-yl)-1H-indol-5-yl)acrylamide]
15.4 nM | > 5000 nM | 27 nM | C=CC(=O)Nc1cc(-c2cn(CC)cn2)c2[nH]c(-c3cc(F)c(F)c(F)c3)cc2c1 [Example 50, N-(7-(1-ethyl-1H-imidazol-4-yl)-2-(3,4,5-trifluorophenyl)-1H-indol-5-yl)acrylamide]
7.6 nM | 2540 nM | 48 nM | C=CC(=O)Nc1cc(-c2cn(CC)cn2)c2[nH]c(-c3ccc(F)cc3)cc2c1 [Example 51, N-(7-(1-ethyl-1H-imidazol-4-yl)-2-(4-fluorophenyl)-1H-indol-5-yl)acrylamide]
58 nM | 868 nM | 346 nM | C=CC(=O)Nc1cc(-c2cn(C)cn2)c2[nH]c(-c3ccc(Br)cc3)cc2c1 [Example 52, N-(2-(4-bromophenyl)-7-(1-methyl-1H-imidazol-4-yl)-1H-indole-5-yl)acrylamide]
